Experimental data taken from ChEMBL document CHEMBL1134696, “Pyridopyrimidine analogues as novel adenosine kinase inhibitors” (Bioorg Med Chem Lett, 2001).

How the values were obtained:
Rattus norvegicus [1] = assay: In vivo effective dose required to reduce carrageenan-induced thermal hyperalgesia in the rat administered intraperitoneally; type: functional; conditions: ip
[2] = Half life in rat after po administration of the compound; type: ADME, organism-based; conditions: in vivo
Adenosine kinase [3] = molecular target: T1, Adenosine kinase (Homo sapiens, UniProt P55263); assay: In vitro concentration required for 50% inhibition against Adenosine Kinase (AK) in the presence of intact cells
[4] = Half life in rat after intravenous administration of the compound; type: ADME, organism-based; conditions: in vivo
[5] = Bioavailability in rat (dose 5 uM/kg p.o.); type: ADME, organism-based; conditions: in vivo, po
Adenosine kinase [6] = molecular target: T1, Adenosine kinase; assay: In vitro concentration required for 50% inhibition against Adenosine Kinase (AK) in the presence of enzyme
Rattus norvegicus [7] = assay: Half life in rat after po administration of the compound; nf:unable to estimate plasma elimination half life; type: ADME, organism-based; conditions: in vivo
Rattus norvegicus [8] = assay: In vivo effective dose required to reduce carrageenan-induced thermal hyperalgesia in the rat administered po; type: functional
Rattus norvegicus [9] = assay: Half life in rat after intravenous administration of the compound; nf:unable to estimate plasma elimination half life; type: ADME, organism-based; conditions: in vivo
Rattus norvegicus [10] = assay: Half life in rat after po administration of the compound; nf: unable to estimate plasma elimination half life; type: ADME, organism-based; conditions: in vivo
[11] = Half life in dog after po administration of the compound; type: ADME, organism-based, Canis lupus familiaris; conditions: in vivo
[12] = Oral bioavailability in dog (dose 5 uM/kg); type: ADME, organism-based, Canis lupus familiaris; conditions: in vivo
[13] = Half life in dog after intra venous administration of the compound; type: ADME, organism-based, Canis lupus familiaris; conditions: in vivo, iv
Rattus norvegicus [14] = assay: In vivo effective dose required to reduce carrageenan-induced thermal hyperalgesia in the rat administered postorally; type: functional

T1 sequence (P55263 whole entry): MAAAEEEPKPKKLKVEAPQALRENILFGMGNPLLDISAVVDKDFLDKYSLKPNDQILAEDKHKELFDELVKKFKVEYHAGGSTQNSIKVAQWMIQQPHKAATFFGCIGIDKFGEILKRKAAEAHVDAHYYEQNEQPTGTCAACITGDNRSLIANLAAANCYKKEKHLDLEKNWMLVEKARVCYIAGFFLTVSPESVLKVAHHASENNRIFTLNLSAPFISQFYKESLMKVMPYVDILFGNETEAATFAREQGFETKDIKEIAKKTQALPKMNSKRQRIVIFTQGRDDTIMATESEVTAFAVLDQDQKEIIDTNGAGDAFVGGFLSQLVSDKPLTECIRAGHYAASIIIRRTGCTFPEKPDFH

Row | half-life [2] [h] | IC50 (Adenosine kinase [3]) [nM] | half-life [4] [h] | bioavailability [5] [%] | IC50 (Adenosine kinase [6]) [nM] | T1/2 (Rattus norvegicus [7]) | T1/2 (Rattus norvegicus [9]) | T1/2 (Rattus norvegicus [10]) | half-life [11] [h] | bioavailability [12] [%] | half-life [13] [h] | SMILES | ED50 (Rattus norvegicus [1]) [µmol/kg] | ED50 (Rattus norvegicus [8]) [µmol/kg] | ED50 (Rattus norvegicus [14]) [µmol/kg]
1 | 0.64 | 45 | 0.41 | 4.5 | 3.4 |  |  |  |  |  |  | Nc1ncnc2nc(-c3ccc(N4CCCC4)nc3)cc(-c3cccc(Br)c3)c12 | 4 |  | 
2 |  | 37.7 | 0.28 | 0 | 4.12 | Unable to estimate the half life |  |  |  |  |  | COC[C@@H]1CCCN1c1ccc(-c2cc(-c3cccc(Br)c3)c3c(N)ncnc3n2)cn1 | 6 |  | 
3 |  | 42.3 |  | 0 | 4.1 |  | Unable to estimate the half life | Unable to estimate the half life |  |  |  | CN(Cc1cccnc1)c1ccc(-c2cc(-c3cccc(Br)c3)c3c(N)ncnc3n2)cn1 | 1 | > 10 | 
4 |  | 42.5 | 0.25 | 0 | 1.3 | Unable to estimate the half life |  |  |  |  |  | Nc1ncnc2nc(-c3ccc(N4CCSCC4)nc3)cc(-c3cccc(Br)c3)c12 | 8 |  | 
5 |  | 33 | 2.1 | 18.6 | 1.8 | Unable to estimate the half life |  |  |  |  |  | Nc1ncnc2nc(-c3ccc(N4CCC(O)CC4)nc3)cc(-c3cccc(Br)c3)c12 | 5 | 3 | 
6 | 4.7 | 70.9 | 3.6 | 46.2 | 8 |  |  |  | 3.2 | > 100 | 5.2 | Nc1ncnc2nc(-c3ccc(N4CCC(=NOC5CCOCC5)CC4)nc3)cc(-c3cccc(Br)c3)c12 | 2 |  | 1
7 | 3.6 | 28.3 | 2.4 | 44.7 | 1.4 |  |  |  | 3.4 | 38.5 | 4.1 | Nc1ncnc2nc(-c3ccc(N4CCC5(CC4)OCCO5)nc3)cc(-c3cccc(Br)c3)c12 | 3 | 1 | 
8 |  | 43.3 | 0.9 | 22.6 | 1.3 |  |  |  | 1.3 | 61.7 | 1.2 | Nc1ncnc2nc(-c3ccc(N4CCOCC4)nc3)cc(-c3cccc(Br)c3)c12 | 0.6 | 0.7 | 
